Experimental data as given in patent publication US20230085307A1, “PYRIDAZINONE COMPOUND AND HERBICIDE” (NISSAN CHEMICAL CORPORATION, priority 2019, published 2023).

What follows are compounds tested on late watergrass (assay: Test Example 1: herbicidal activity, application before weed generation under submerged conditions (Table 16, symbol A)). Details: 320 g/ha applied herbicide.
Type: in vivo, late watergrass (Echinochloa oryzicola)
In short: (§1)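 Emulsion formulation, water-diluted to set dose, was put onto the flooded surface (4 cm depth, alluvial soil) the same day weeds were sown and 2.5-leaf rice transplanted. After 3 weeks at 25-30 °C under glass, each species was rated 0 (≤5% kill) to 5 (≥90% kill).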

Compound	Herbicidal effect on A: late watergrass (grade 0-5)
CSc1ccc(-c2sc3ccc(F)cc3c2-c2c(O)c(C)nn(C)c2=O)cc1 [2-076]	3 (Herbicidal rate of 40% or more and less than 70%)
CCCC(=O)Oc1c(C)nn(C)c(=O)c1-c1c(-c2ccc(SC)cc2)sc2ccc(F)cc12 [2-077]	3 (Herbicidal rate of 40% or more and less than 70%)

Each compound was assayed on Japanese bulrush (assay: Test Example 1: herbicidal activity, application before weed generation under submerged conditions (Table 16, symbol B)). Details: 320 g/ha applied herbicide.
Type: in vivo, Japanese bulrush (Schoenoplectus juncoides)
In short: as §1

Compound	Herbicidal effect on B: Japanese bulrush (grade 0-5)
CSc1ccc(-c2sc3ccc(F)cc3c2-c2c(O)c(C)nn(C)c2=O)cc1 [2-076]	0 (Herbicidal rate of 5% or less (almost no effect))
CCCC(=O)Oc1c(C)nn(C)c(=O)c1-c1c(-c2ccc(SC)cc2)sc2ccc(F)cc12 [2-077]	4 (Herbicidal rate of 70% or more and less than 90%)

Each compound was assayed on oval-leafed pondweed (assay: Test Example 1: herbicidal activity, application before weed generation under submerged conditions (Table 16, symbol C)). Details: 320 g/ha applied herbicide.
Type: in vivo, oval-leafed pondweed (Monochoria vaginalis)
In short: as §1

Compound	Herbicidal effect on C: oval-leafed pondweed (grade 0-5)
CSc1ccc(-c2sc3ccc(F)cc3c2-c2c(O)c(C)nn(C)c2=O)cc1 [2-076]	0 (Herbicidal rate of 5% or less (almost no effect))
CCCC(=O)Oc1c(C)nn(C)c(=O)c1-c1c(-c2ccc(SC)cc2)sc2ccc(F)cc12 [2-077]	5 (Herbicidal rate of 90% or more (almost completely withered))

Each compound was assayed on barnyard grass (assay: Test Example 3: herbicidal effect by foliage application, Wagner pot (Table 18, symbol H)). Details: 320 g/ha.
Type: in vivo, barnyard grass (Echinochloa crus-galli)
In short: (§2)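 Plants were sown in alluvial soil held under 0.1–0.5 cm standing water and grown 14 days in a greenhouse at 25–30 °C. An emulsifiable formulation, water-diluted to the set dose, was then sprayed onto the foliage, and effects were scored three weeks later using previously defined criteria.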

Compound	herbicidal effect on H (barnyard grass), rating 0-5
CSc1ccc(-c2sc3ccc(F)cc3c2-c2c(O)c(C)nn(C)c2=O)cc1 [2-076]	5 (Herbicidal rate of 90% or more (almost completely withered))
CCCC(=O)Oc1c(C)nn(C)c(=O)c1-c1c(-c2ccc(SC)cc2)sc2ccc(F)cc12 [2-077]	5 (Herbicidal rate of 90% or more (almost completely withered))

What follows are compounds tested on Chinese sprangletop (assay: Test Example 3: herbicidal effect by foliage application, Wagner pot (Table 18, symbol D)). Details: 320 g/ha.
Type: in vivo, chinese sprangletop (Leptochloa chinensis)
In short: as §2

Compound	herbicidal effect on D (Chinese sprangletop), rating 0-5
CSc1ccc(-c2sc3ccc(F)cc3c2-c2c(O)c(C)nn(C)c2=O)cc1 [2-076]	5 (Herbicidal rate of 90% or more (almost completely withered))
CCCC(=O)Oc1c(C)nn(C)c(=O)c1-c1c(-c2ccc(SC)cc2)sc2ccc(F)cc12 [2-077]	5 (Herbicidal rate of 90% or more (almost completely withered))

These compounds were tested on rice flat sedge (assay: Test Example 3: herbicidal effect by foliage application, Wagner pot (Table 18, symbol E)). Details: 320 g/ha.
Type: in vivo, rice flat sedge (Cyperus iria)
In short: as §2

Compound	herbicidal effect on E (rice flat sedge), rating 0-5
CSc1ccc(-c2sc3ccc(F)cc3c2-c2c(O)c(C)nn(C)c2=O)cc1 [2-076]	5 (Herbicidal rate of 90% or more (almost completely withered))
CCCC(=O)Oc1c(C)nn(C)c(=O)c1-c1c(-c2ccc(SC)cc2)sc2ccc(F)cc12 [2-077]	5 (Herbicidal rate of 90% or more (almost completely withered))

These compounds were tested on Italian ryegrass (assay: Test Example 4: herbicidal effect by soil treatment (Table 19, symbol K)). Details: 320 g/ha.
Type: in vivo, Italian ryegrass (Lolium multiflorum)
In short: (§3)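 Three weeks of greenhouse growth at 25° C. to 30° C. followed a uniform surface spray of water-diluted emulsion at a predetermined herbicide amount. Seeds had been sown beforehand under about 1.5 cm of sterilized diluvial soil. Grading followed criteria set out in an earlier test.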

Compound	herbicidal effect rating, K: Italian ryegrass
CSc1ccc(-c2sc3ccc(F)cc3c2-c2c(O)c(C)nn(C)c2=O)cc1 [2-076]	4 (Herbicidal rate of 70% or more and less than 90%)
CCCC(=O)Oc1c(C)nn(C)c(=O)c1-c1c(-c2ccc(SC)cc2)sc2ccc(F)cc12 [2-077]	3 (Herbicidal rate of 40% or more and less than 70%)

What follows are compounds tested on windgrass (assay: Test Example 4: herbicidal effect by soil treatment (Table 19, symbol L)). Details: 320 g/ha.
Type: in vivo, windgrass (Apera spica-venti)
In short: as §3

Compound	herbicidal effect rating, L: windgrass
CSc1ccc(-c2sc3ccc(F)cc3c2-c2c(O)c(C)nn(C)c2=O)cc1 [2-076]	4 (Herbicidal rate of 70% or more and less than 90%)
CCCC(=O)Oc1c(C)nn(C)c(=O)c1-c1c(-c2ccc(SC)cc2)sc2ccc(F)cc12 [2-077]	3 (Herbicidal rate of 40% or more and less than 70%)

Each compound was assayed on lambsquarters (assay: Test Example 4: herbicidal effect by soil treatment (Table 19, symbol O)). Details: 320 g/ha.
Type: in vivo, lambsquarters (Chenopodium album)
In short: as §3

Compound	herbicidal effect rating, O: lambsquarters
CSc1ccc(-c2sc3ccc(F)cc3c2-c2c(O)c(C)nn(C)c2=O)cc1 [2-076]	3 (Herbicidal rate of 40% or more and less than 70%)
CCCC(=O)Oc1c(C)nn(C)c(=O)c1-c1c(-c2ccc(SC)cc2)sc2ccc(F)cc12 [2-077]	5 (Herbicidal rate of 90% or more (almost completely withered))

These compounds were tested on chickweed (assay: Test Example 4: herbicidal effect by soil treatment (Table 19, symbol P)). Details: 320 g/ha.
Type: in vivo, common chickweed (Stellaria media)
In short: as §3

Compound	herbicidal effect rating, P: chickweed
CSc1ccc(-c2sc3ccc(F)cc3c2-c2c(O)c(C)nn(C)c2=O)cc1 [2-076]	4 (Herbicidal rate of 70% or more and less than 90%)
CCCC(=O)Oc1c(C)nn(C)c(=O)c1-c1c(-c2ccc(SC)cc2)sc2ccc(F)cc12 [2-077]	5 (Herbicidal rate of 90% or more (almost completely withered))

Each compound was assayed on persian speedwell (assay: Test Example 4: herbicidal effect by soil treatment (Table 19, symbol R)). Details: 320 g/ha.
Type: in vivo, Persian speedwell (Veronica persica)
In short: as §3

Compound	herbicidal effect rating, R: persian speedwell
CSc1ccc(-c2sc3ccc(F)cc3c2-c2c(O)c(C)nn(C)c2=O)cc1 [2-076]	5 (Herbicidal rate of 90% or more (almost completely withered))
CCCC(=O)Oc1c(C)nn(C)c(=O)c1-c1c(-c2ccc(SC)cc2)sc2ccc(F)cc12 [2-077]	5 (Herbicidal rate of 90% or more (almost completely withered))

What follows are compounds tested on southern crabgrass (assay: Test Example 5: herbicidal effect by foliage application, plastic box (Table 20, symbol F)). Details: foliage application, 320 g/ha, evaluated three weeks after application.
Type: in vivo, southern crabgrass (Digitaria ciliaris)
In short: (§4)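 Plants sown in sterilized diluvial soil and grown 14 days in a greenhouse at 25° C to 30° C, then sprayed on the foliage with the compound's emulsion diluted in water to a predetermined herbicide amount. Injury to weeds and crops scored three weeks after application on a visual rating scale.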

Compound	herbicidal effect on F: southern crabgrass
CSc1ccc(-c2sc3ccc(F)cc3c2-c2c(O)c(C)nn(C)c2=O)cc1 [2-076]	5 (Herbicidal rate of 90% or more (almost completely withered))
CCCC(=O)Oc1c(C)nn(C)c(=O)c1-c1c(-c2ccc(SC)cc2)sc2ccc(F)cc12 [2-077]	5 (Herbicidal rate of 90% or more (almost completely withered))

What follows are compounds tested on barnyard grass (assay: Test Example 5: herbicidal effect by foliage application, plastic box (Table 20, symbol H)). Details: foliage application, 320 g/ha, evaluated three weeks after application.
Type: in vivo, barnyard grass (Echinochloa crus-galli)
In short: as §4

Compound	herbicidal effect on H: barnyard grass
CSc1ccc(-c2sc3ccc(F)cc3c2-c2c(O)c(C)nn(C)c2=O)cc1 [2-076]	5 (Herbicidal rate of 90% or more (almost completely withered))
CCCC(=O)Oc1c(C)nn(C)c(=O)c1-c1c(-c2ccc(SC)cc2)sc2ccc(F)cc12 [2-077]	5 (Herbicidal rate of 90% or more (almost completely withered))

What follows are compounds tested on wild oat (assay: Test Example 5: herbicidal effect by foliage application, plastic box (Table 20, symbol I)). Details: foliage application, 320 g/ha, evaluated three weeks after application.
Type: in vivo, wild oat (Avena fatua)
In short: as §4

Compound	herbicidal effect on I: wild oat
CSc1ccc(-c2sc3ccc(F)cc3c2-c2c(O)c(C)nn(C)c2=O)cc1 [2-076]	5 (Herbicidal rate of 90% or more (almost completely withered))
CCCC(=O)Oc1c(C)nn(C)c(=O)c1-c1c(-c2ccc(SC)cc2)sc2ccc(F)cc12 [2-077]	5 (Herbicidal rate of 90% or more (almost completely withered))

Each compound was assayed on blackgrass (assay: Test Example 5: herbicidal effect by foliage application, plastic box (Table 20, symbol J)). Details: foliage application, 320 g/ha, evaluated three weeks after application.
Type: in vivo, blackgrass (Alopecurus myosuroides)
In short: as §4

Compound	herbicidal effect on J: blackgrass
CSc1ccc(-c2sc3ccc(F)cc3c2-c2c(O)c(C)nn(C)c2=O)cc1 [2-076]	4 (Herbicidal rate of 70% or more and less than 90%)
CCCC(=O)Oc1c(C)nn(C)c(=O)c1-c1c(-c2ccc(SC)cc2)sc2ccc(F)cc12 [2-077]	4 (Herbicidal rate of 70% or more and less than 90%)

What follows are compounds tested on windgrass (assay: Test Example 5: herbicidal effect by foliage application, plastic box (Table 20, symbol L)). Details: foliage application, 320 g/ha, evaluated three weeks after application.
Type: in vivo, windgrass (Apera spica-venti)
In short: as §4

Compound	herbicidal effect on L: windgrass
CSc1ccc(-c2sc3ccc(F)cc3c2-c2c(O)c(C)nn(C)c2=O)cc1 [2-076]	5 (Herbicidal rate of 90% or more (almost completely withered))
CCCC(=O)Oc1c(C)nn(C)c(=O)c1-c1c(-c2ccc(SC)cc2)sc2ccc(F)cc12 [2-077]	5 (Herbicidal rate of 90% or more (almost completely withered))

Each compound was assayed on velvetleaf (assay: Test Example 5: herbicidal effect by foliage application, plastic box (Table 20, symbol M)). Details: foliage application, 320 g/ha, evaluated three weeks after application.
Type: in vivo, velvetleaf (Abutilon theophrasti)
In short: as §4

Compound	herbicidal effect on M: velvetleaf
CSc1ccc(-c2sc3ccc(F)cc3c2-c2c(O)c(C)nn(C)c2=O)cc1 [2-076]	5 (Herbicidal rate of 90% or more (almost completely withered))
CCCC(=O)Oc1c(C)nn(C)c(=O)c1-c1c(-c2ccc(SC)cc2)sc2ccc(F)cc12 [2-077]	5 (Herbicidal rate of 90% or more (almost completely withered))

These compounds were tested on redroot pigweed (assay: Test Example 5: herbicidal effect by foliage application, plastic box (Table 20, symbol N)). Details: foliage application, 320 g/ha, evaluated three weeks after application.
Type: in vivo, redroot pigweed (Amaranthus retroflexus)
In short: as §4

Compound	herbicidal effect on N: redroot pigweed
CSc1ccc(-c2sc3ccc(F)cc3c2-c2c(O)c(C)nn(C)c2=O)cc1 [2-076]	5 (Herbicidal rate of 90% or more (almost completely withered))
CCCC(=O)Oc1c(C)nn(C)c(=O)c1-c1c(-c2ccc(SC)cc2)sc2ccc(F)cc12 [2-077]	5 (Herbicidal rate of 90% or more (almost completely withered))

Each compound was assayed on chickweed (assay: Test Example 5: herbicidal effect by foliage application, plastic box (Table 20, symbol P)). Details: foliage application, 320 g/ha, evaluated three weeks after application.
Type: in vivo, common chickweed (Stellaria media)
In short: as §4

Compound	herbicidal effect on P: chickweed
CSc1ccc(-c2sc3ccc(F)cc3c2-c2c(O)c(C)nn(C)c2=O)cc1 [2-076]	5 (Herbicidal rate of 90% or more (almost completely withered))
CCCC(=O)Oc1c(C)nn(C)c(=O)c1-c1c(-c2ccc(SC)cc2)sc2ccc(F)cc12 [2-077]	5 (Herbicidal rate of 90% or more (almost completely withered))
